Laboratory results as given in patent publication US4840966A, “Method of treating hypertension” (Mitsui Norin Co., Ltd., priority 1987, dated 1989).
Read-outs that look alike come from different tables or passages of the source.

Key:
[1] = target: T1, ACE (Angiotensin I converting enzyme) (Sus scrofa, UniProt F1RRW5); test: Inhibition of ACE (Hip-His-Leu substrate, O-phthal aldehyde fluorescence); assay type: biochemical, pig
T1 construct: the ACE obtained from renal cortex of pig; from tissue; host or cells: renal cortex of pig
T1 sequence (F1RRW5 34-1309): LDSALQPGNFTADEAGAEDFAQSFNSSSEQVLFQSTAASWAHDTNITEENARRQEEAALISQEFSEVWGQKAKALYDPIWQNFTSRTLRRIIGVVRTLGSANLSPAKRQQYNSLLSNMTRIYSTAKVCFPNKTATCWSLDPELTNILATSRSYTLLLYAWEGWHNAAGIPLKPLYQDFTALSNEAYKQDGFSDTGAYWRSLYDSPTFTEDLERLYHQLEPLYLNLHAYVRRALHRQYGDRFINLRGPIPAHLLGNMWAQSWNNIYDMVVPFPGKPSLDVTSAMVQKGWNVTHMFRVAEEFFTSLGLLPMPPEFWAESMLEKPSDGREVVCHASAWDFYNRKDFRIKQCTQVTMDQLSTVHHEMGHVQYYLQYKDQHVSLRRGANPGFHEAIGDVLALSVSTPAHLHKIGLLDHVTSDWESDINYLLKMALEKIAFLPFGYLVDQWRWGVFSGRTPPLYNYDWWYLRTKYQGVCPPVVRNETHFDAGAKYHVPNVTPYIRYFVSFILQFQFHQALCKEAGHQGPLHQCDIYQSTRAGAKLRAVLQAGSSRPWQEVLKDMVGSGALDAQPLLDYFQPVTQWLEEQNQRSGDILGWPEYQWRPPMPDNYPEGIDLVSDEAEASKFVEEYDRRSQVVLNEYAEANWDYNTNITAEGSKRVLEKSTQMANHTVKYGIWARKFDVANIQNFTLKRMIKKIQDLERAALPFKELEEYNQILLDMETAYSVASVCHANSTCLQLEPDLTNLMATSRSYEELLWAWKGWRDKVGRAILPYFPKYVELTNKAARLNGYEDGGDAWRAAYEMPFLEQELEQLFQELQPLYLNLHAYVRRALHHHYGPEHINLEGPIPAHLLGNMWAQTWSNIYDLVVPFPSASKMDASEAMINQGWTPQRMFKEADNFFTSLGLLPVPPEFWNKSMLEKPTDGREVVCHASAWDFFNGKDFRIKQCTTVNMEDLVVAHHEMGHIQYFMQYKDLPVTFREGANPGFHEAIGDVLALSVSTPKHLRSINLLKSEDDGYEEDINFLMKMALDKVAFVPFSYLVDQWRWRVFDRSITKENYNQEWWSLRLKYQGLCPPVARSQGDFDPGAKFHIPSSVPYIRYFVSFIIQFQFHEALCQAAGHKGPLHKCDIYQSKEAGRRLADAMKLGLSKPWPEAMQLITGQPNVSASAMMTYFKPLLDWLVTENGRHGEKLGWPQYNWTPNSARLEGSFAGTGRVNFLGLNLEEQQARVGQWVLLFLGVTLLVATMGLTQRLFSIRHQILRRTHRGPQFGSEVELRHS
Text: The activity of ACE inhibition was expressed by the equation
in which S was the intensity of the fluorescence in the above described procedure with the sample solution, A was the value of the blank test by replacing the sample solution with the same volume of water and B was the value obtained by replacing the enzyme solution with the same volume of pure water.

carboxypeptidase A = target: T2, carboxypeptidase A (Bos taurus, UniProt P00730); test: Inhibition of carboxypeptidase A; assay type: biochemical
T2 sequence (P00730 111-419): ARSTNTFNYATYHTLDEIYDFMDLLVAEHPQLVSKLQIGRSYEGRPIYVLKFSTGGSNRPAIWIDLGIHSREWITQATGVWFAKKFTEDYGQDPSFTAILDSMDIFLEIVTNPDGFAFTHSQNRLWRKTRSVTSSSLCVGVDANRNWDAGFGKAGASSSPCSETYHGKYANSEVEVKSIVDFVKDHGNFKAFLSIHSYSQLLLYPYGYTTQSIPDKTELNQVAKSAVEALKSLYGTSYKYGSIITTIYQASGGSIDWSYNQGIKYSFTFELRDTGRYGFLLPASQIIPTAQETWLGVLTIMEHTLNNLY

[2] = system: Spontaneously Hypertensive Rats; test: Systolic blood pressure of SHR fed epigallocatechin gallate in the diet (FIG. 4); assay type: in vivo; conditions: 8 weeks old, 0.5% in diet, after seven weeks feeding, control continued to rise
Text: Three SHR (Spontaneously Hypertensive Rats) of 8 weeks old were fed on the diet which consisted of 99.5% of normal diet and 0.5% of epigallocatechin gallate mixed together. As a control two SHR of the same stock were fed on a 100% normal diet. After seven weeks feeding the blood pressure of tea polyphenol fed group levelled off while the blood pressure of the control group continued to rise. In FIG. 4, the curve A denotes the systolic blood pressure of control group while B denotes the systolic blood pressure of test group.

[3] = Acute oral toxicity in mice (LD50); conditions: mouse, in vivo, male ICR mice, 8 weeks old, read-out: LD50 of one week
[4] = ACE from renal cortex of pig, Hip-His-Leu substrate, 37° C.

SMILES	IC50 [1] [µM]	IC50 (carboxypeptidase A) [µM]	blood pressure (in words) [2]	LD50 at 168 h [3] [mg/kg]	IC50 [1, 4] [µM]
O=C(O[C@@H]1Cc2c(O)cc(O)cc2O[C@@H]1c1cc(O)c(O)c(O)c1)c1cc(O)c(O)c(O)c1 [(-)-Epigallocatechin gallate, (-)-epigallocatechin gallate]	90	3000	levelled off	2310	–
O=c1c(O)cc([C@H]2Oc3cc(O)cc(O)c3C[C@H]2O)cc2c([C@H]3Oc4cc(O)cc(O)c4C[C@H]3O)cc(O)c(O)c12 [Free theaflavin, free theaflavin]	–	> 5000	–	–	400
O=C(O[C@@H]1Cc2c(O)cc(O)cc2O[C@@H]1c1cc(O)c(=O)c2c(O)c(O)cc([C@H]3Oc4cc(O)cc(O)c4C[C@H]3O)c2c1)c1cc(O)c(O)c(O)c1 [Theaflavin monogallate A, theaflavin monogallate A]	–	> 5000	–	–	115
O=C(O[C@@H]1Cc2c(O)cc(O)cc2O[C@@H]1c1cc(O)c(O)c2c(=O)c(O)cc([C@H]3Oc4cc(O)cc(O)c4C[C@H]3O)cc12)c1cc(O)c(O)c(O)c1 [Theaflavin monogallate B, theaflavin monogallate B]	–	> 5000	–	–	110
